Results published in patent EP4129284B1, “SERTACONAZOL FOR PROVIDING A SPORISTATIC AND/OR SPORICIDAL EFFECT” (Dr. Pfleger Arzneimittel GmbH, priority 2021, dated 2023).

Tested on: full skin models
Assay type: cell-based, human
Details: for cell viability: human
Experimental: Additionally, the influence on the cell viability and the release of lactate dehydrogenase (LDH) was examined over the incubation time. Disruptions of the cell membranes can be measured by the release of the cytosolic enzyme LDH and be evaluated as a marker for cellular necrosis. As the biocompatibility of the material is determined by further cellular and molecular factors, the analysis of the cellular interleukin release allows the conclusion on e.g. pro-inflammatory effects of the substances, which would not be possible to be detected by sole cytotoxicity. Such interleukins are interleukins 1α, 6 or 8, which are involved in coordinating the cellular proliferation, cell migration and possible inflammatory processes. Such a method is described in, for example, Wiegand C, Hipler UC. Evaluation of biocompatibility and cytotoxicity using keratinocyte and fibroblast cultures. Skin Pharmacol Physiol 2009; 22:74-82; Wiegand C, Winter D, Hipler UC. Molecular-weight-dependent toxic effects of chitosans on the human keratinocyte cell line HaCaT. Skin Pharmacol Physiol. 2010;23(3):164-70.
The spore suspensions and the solutions of sertaconazol, ciclopiroxolamin and terbinafin were prepared as in Example 1, wherein the respective test concentrations were obtained by diluting these solutions in ultrapure water (WFI; Fresenius Kabi) instead of SGB (Merck). Full skin models were produced as previously described [Reddersen K, Wiegand C, Elsner P, Hipler UC. Three-dimensional human skin model infected with Staphylococcus aureus as a tool for evaluation of bioactivity and biocompatibility of antiseptics. Int J Antimicrob Agents. 2019; 54(3):283-291; Wiegand C, Fink S, Beier O, Horn K, Pfuch A, Schimanski A, Grünler B, Hipler UC, Elsner P. Dose- and Time-Dependent Cellular Effects of Cold Atmospheric Pressure Plasma Evaluated in 3D Skin Models. Skin Pharmacol Physiol. 2016;29(5):257-265].Particularly, normal human dermal fibroblasts (NHDF; Lot 1060702.1, Promocell) and normal human epidermal keratinocytes (NHEK; Lot 9100102, Promocell) were used. Fibroblasts were cultivated in Dulbecco's modified eagle medium (DMEM; Lot MC09049P, Amimed), with 2% foetal calf serum (Lot P160509; PAN), 5 ng/mL hFGF (Lot 0329586; novoprotein) and 5 µg/ml Insulin (Lot H07443P, AMIMED) at 37°C and a 5% CO2 atmosphere. Keratinocytes were cultivated in keratinocyte medium (KBM, Lot 446M063, Promocell) at 37°C and a 5% CO2 atmosphere. The cultivation was performed over 7 days in 75 cm^2 cell culture flasks (Greiner Bio-One). The cells were subsequently detached with Trypsin-EDTA (Lot 2091326; Gibco) and dissolved in the respective medium. For producing the dermis equivalent, fibroblasts were cultivated in 12-well inserts (Greiner bio-one) with DMEM (Lot MC09049P, Amimed) + 10% foetal calf serum (Lot P160509, PAN) + 1% Gentamycin (Lot 2027100, Gibco) + 150 µg/ml ascorbic acid (Lot BCBS1081V, Sigma) for 3 weeks at […] and 5 % CO2. The medium was changed all 2-3 days. Before seeding the keratinocytes for producing the […], the medium surrounding the insert was completely removed and the dermis upper layer was coated with fibronectin (50 µg/mL; Lot 435P078, Promocell). After 30 min of incubation of the dermis equivalent with fibronectin, the seeding of the keratinocytes was performed with 2 × 10^5 cells / insert in KBM (Lot 446M063, Promocell) + 5% FKS (Lot P160509, PAN) + 1% Gentamycin (Lot 2027100, Gibco). Subsequently, the skin models were incubated for 45 min in the incubator before the models were flooded with KBM + 5% FKS + 1% Gentamycin. The skin models were cultivated for 7 days by submersion in the medium with decreasing foetal calf serum concentration (5 %, 2 %, 0 %). The medium was changed all 2-3 days. After the cultivation by submersion, the skin models were further cultivated for 12 days at the air-medium interface (airlift cultivation). […]

| Structure (SMILES) | effect on the cell viability of the full skin models | secretion of LDH | cell viability |
| --- | --- | --- | --- |
| Cc1cc(C2CCCCC2)n(O)c(=O)c1 [Ciclopiroxolamin, ciclopiroxolamin] | did not have a negative effect | no significant secretion | ≥ 70% |
| Clc1ccc(C(Cn2ccnc2)OCc2csc3c(Cl)cccc23)c(Cl)c1 (stereo not drawn) [Sertaconazol, sertaconazol] | did not have a negative effect | no significant secretion | ≥ 70% |
| CN(C/C=C/C#CC(C)(C)C)Cc1cccc2ccccc12 [Terbinafin, terbinafin] | did not have a negative effect | no significant secretion | ≥ 70% |
